Measured values: US11370773B1, “Inhibiting human integrin (alpha-4) (beta-7)” (Morphic Therapeutic, Inc., priority 2019, dated 2022)

biological target: T1, integrin α4β7 (Homo sapiens, UniProt P13612+P26010); test: Fluorescence Polarization (FP) assay for α4β7 binding, competition with fluorescein-labeled peptide; settings: 6.5 nM integrin α4β7, 3 nM fluorescein-labeled peptide, 2 mM MnCl2; read-out: FP Assay (Example 5) IC50
T1 sequence (P13612 34-977 limits assumed): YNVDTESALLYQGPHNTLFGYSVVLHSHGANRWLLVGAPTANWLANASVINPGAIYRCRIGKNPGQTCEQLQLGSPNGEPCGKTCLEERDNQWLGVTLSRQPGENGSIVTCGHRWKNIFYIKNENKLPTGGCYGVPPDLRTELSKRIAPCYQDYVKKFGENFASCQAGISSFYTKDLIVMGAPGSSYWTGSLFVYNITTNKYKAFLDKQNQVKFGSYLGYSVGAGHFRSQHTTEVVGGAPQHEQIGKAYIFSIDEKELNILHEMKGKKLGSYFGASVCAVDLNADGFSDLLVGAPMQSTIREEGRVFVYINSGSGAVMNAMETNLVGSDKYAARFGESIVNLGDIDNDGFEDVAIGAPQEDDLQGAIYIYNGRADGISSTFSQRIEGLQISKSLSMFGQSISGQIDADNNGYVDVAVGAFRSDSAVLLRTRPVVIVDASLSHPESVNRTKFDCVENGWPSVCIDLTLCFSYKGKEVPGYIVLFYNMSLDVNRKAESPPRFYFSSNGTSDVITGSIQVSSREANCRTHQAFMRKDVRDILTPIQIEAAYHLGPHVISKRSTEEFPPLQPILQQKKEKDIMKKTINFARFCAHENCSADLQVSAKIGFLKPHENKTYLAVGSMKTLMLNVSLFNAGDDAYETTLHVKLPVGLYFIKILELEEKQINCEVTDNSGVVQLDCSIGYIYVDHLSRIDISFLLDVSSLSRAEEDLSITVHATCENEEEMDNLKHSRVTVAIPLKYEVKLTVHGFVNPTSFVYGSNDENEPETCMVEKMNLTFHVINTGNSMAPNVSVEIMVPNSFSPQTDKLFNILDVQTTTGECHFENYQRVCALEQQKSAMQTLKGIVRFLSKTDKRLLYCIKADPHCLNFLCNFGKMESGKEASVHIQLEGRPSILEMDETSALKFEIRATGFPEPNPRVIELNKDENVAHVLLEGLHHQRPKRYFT
T1 sequence (P26010 20-723 limits assumed): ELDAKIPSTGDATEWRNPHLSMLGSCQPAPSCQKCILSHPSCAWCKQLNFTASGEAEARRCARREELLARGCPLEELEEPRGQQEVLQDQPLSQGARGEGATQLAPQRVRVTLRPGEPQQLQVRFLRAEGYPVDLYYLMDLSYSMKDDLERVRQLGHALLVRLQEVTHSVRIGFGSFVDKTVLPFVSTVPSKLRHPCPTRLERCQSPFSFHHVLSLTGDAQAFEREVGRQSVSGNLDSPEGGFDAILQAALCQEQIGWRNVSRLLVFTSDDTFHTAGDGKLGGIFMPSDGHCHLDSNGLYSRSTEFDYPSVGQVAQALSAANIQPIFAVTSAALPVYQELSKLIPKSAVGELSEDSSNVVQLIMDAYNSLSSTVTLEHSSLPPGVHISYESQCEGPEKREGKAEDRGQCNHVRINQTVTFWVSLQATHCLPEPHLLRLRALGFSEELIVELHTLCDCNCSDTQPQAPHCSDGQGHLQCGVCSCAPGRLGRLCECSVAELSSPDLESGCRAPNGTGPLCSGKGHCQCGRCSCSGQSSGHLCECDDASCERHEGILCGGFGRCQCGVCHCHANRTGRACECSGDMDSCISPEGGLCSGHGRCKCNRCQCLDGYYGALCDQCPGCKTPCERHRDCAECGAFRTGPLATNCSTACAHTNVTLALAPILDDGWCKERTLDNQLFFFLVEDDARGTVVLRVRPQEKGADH
Protocol: Three in vitro assays were used to examine the α4β7 mechanistic process used by cells: 1) ligand:receptor affinity, 2) the avidity of those interactions on a cell's surface, and 3) how those interactions fare under an imposing force. In Example 5, a Fluorescence Polarization (FP) assay is used to measure compound activity through binding competition with the fluorescein-labeled peptide. In Example 6, the potency of compounds against α4β7 is measured in the cell-based ligand binding assay (LBA), using RPMI 8866 cells incubated with the compound samples in competition with soluble MAdCAM-1 ligand. In Example 7, activity of compounds is evaluated in a cell adhesion assay that mechanistically tests what occurs in vivo when trafficking cells utilize α4β7 to adhere to MAdCAM-1 expressing HEVs of the gut during the extravasation process. In the cell adhesion assay of Example 7, a MAdCAM1-(Fc) is coated on plastic, and α4β7 expressing cells (RPMI-8866) are allowed to adhere to the coated surface in the presence of the test compounds. Next, the force of washing with buffer is applied to cells thereby testing the strength of that adhesion. Unattached cells are removed and the remaining adherent cells are quantified.
Fluorescence Polarization (FP) assays were used to measure compound activity through binding competition with the fluorescein-labeled peptide […]{Lys(FITC)}. In the assay, 6.5 nM of integrin α4β7 was incubated with the test compound in 2 mM manganese chloride, 0.1 mM calcium chloride, 20 mM HEPES buffer at pH 7.3, 150 mM sodium chloride, 0.01% Triton X-100, 2% DMSO, and 3 nM of the fluorescein-labeled peptide. Running the assays in 384-well plates, the integrin protein was pre-incubated with the test compounds for 15 minutes at 22° C. before the fluorescein-labeled peptide was added. After the fluorescein-labeled peptide was added, the assay was incubated at 22° C. for 1 hour and fluorescence polarization was measured. IC50 values were determined by non-linear regression, four-parameter curve fitting.

IC50 [nM] | Structure (SMILES)
≤ 10 | Cc1cc(C)c(-c2cc(C)c(F)c([C@H](CC(=O)O)NC(=O)[C@H](CC(C)C)n3cc(CCCN(C)C)c(C(F)(F)F)cc3=O)c2F)c(C)c1F [IW-P2, (3S)-3-(2-(5-(3-(dimethylamino)propyl)-2-oxo-4-(trifluoromethyl)pyridin-1(2H)-yl)-4-methylpentanamido)-3-(2,3′,4-trifluoro-2′,4′,5,6′-tetramethyl-[1,1′-biphenyl]-3-yl)propanoic Acid]
≤ 10 | Cc1cc(F)c(C)c(C)c1-c1cc(C(F)(F)F)c(F)c([C@H](CC(=O)O)NC(=O)[C@H](CC(C)C)n2cc(CCN3CCC3)c(C(F)(F)F)cc2=O)c1F [KT-P2, (3S)-3-(2-(5-(2-(azetidin-1-yl)ethyl)-2-oxo-4-(trifluoromethyl)pyridin-1(2H)-yl)-4-methylpentanamido)-3-(2,4,4′-trifluoro-2′,3′,6′-trimethyl-5-(trifluoromethyl)-[1,1′-biphenyl]-3-yl)propanoic Acid]
10 to 500 | Cc1ccn([C@@H](CC(C)C)C(=O)N[C@H](CC(=O)O)c2cncc(-c3c(C)cccc3C)c2)c(=O)c1 [Example C-28, reference compound]
≤ 10 | Cc1ccn([C@@H](NC(C)C)C(=O)N[C@@H](CC(=O)O)c2cncc(-c3c(C)cccc3C)c2)c(=O)c1 [Example C-7, reference compound]
≤ 10 | Cc1cc(-c2c(C)ccc(F)c2C)cc([C@H](CC(=O)O)NC(=O)C(CC(C)C)n2cc(CCN3CCC3)c(C(F)(F)F)cc2=O)c1F (single isomer, unassigned) [AF-P2]
≤ 10 | Cc1cc(C)c(-c2cc(C(F)(F)F)c(F)c([C@H](CC(=O)O)NC(=O)[C@H](CC(C)C)n3cc(CCN(C)C)c(C(F)(F)F)cc3=O)c2F)c(C)c1 [IF-P2, (3S)-3-(2,4-difluoro-2′,4′,6′-trimethyl-5-(trifluoromethyl)-[1,1′-biphenyl]-3-yl)-3-(2-(5-(2-(dimethylamino)ethyl)-2-oxo-4-(trifluoromethyl)pyridin-1(2H)-yl)-4-methylpentanamido)propanoic Acid]
≤ 10 | Cc1ccc(F)c(C)c1-c1cc(C2CC2)c(F)c([C@H](CC(=O)O)NC(=O)[C@H](CC(C)C)n2cc(CCN3CCC3)c(C(F)(F)F)cc2=O)c1F [HH-P2, (3S)-3-(2-(5-(2-(azetidin-1-yl)ethyl)-2-oxo-4-(trifluoromethyl)pyridin-1(2H)-yl)-4-methylpentanamido)-3-(5-cyclopropyl-2,3′,4-trifluoro-2′,6′-dimethyl-[1,1′-biphenyl]-3-yl)propanoic Acid]
≤ 10 | Cc1cc(-c2c(C)cc(F)cc2C)cc([C@H](CC(=O)O)NC(=O)[C@H](CC(C)C)n2cc(CCN(C)C)cc(C(F)F)c2=O)c1F [I-P2, (3S)-3-(4,4′-difluoro-2′,5,6′-trimethyl-[1,1′-biphenyl]-3-yl)-3-(2-(3-(difluoromethyl)-5-(2-(dimethylamino)ethyl)-2-oxopyridin-1(2H)-yl)-4-methylpentanamido)propanoic Acid]
≤ 10 | Cc1cc(C)c(-c2cc(C(F)(F)F)c(F)c([C@H](CC(=O)O)NC(=O)[C@H](CC(C)C)n3cc(CCN4CCC4)c(C(F)(F)F)cc3=O)c2F)c(C)c1 [IG-P2, (3S)-3-(2-(5-(2-(azetidin-1-yl)ethyl)-2-oxo-4-(trifluoromethyl)pyridin-1(2H)-yl)-4-methylpentanamido)-3-(2,4-difluoro-2′,4′,6′-trimethyl-5-(trifluoromethyl)biphenyl-3-yl)propanoic Acid]
≤ 10 | Cc1cc(C2CC2)cc(C)c1-c1cc(C(F)(F)F)c(F)c([C@H](CC(=O)O)NC(=O)[C@H](CC(C)C)n2cc(CCCN(C)C)c(C(F)(F)F)cc2=O)c1F [HU-P2, (3S)-3-(4′-cyclopropyl-2,4-difluoro-2′,6′-dimethyl-5-(trifluoromethyl)-[1,1′-biphenyl]-3-yl)-3-(2-(5-(3-(dimethylamino)propyl)-2-oxo-4-(trifluoromethyl)pyridin-1(2H)-yl)-4-methylpentanamido)propanoic Acid]
≤ 10 | Cc1cc(F)cc(C)c1-c1cc(C(F)(F)F)c(F)c([C@H](CC(=O)O)NC(=O)[C@H](CC(C)C)n2cc(CCCN(C)C)c(C(F)(F)F)cc2=O)c1F [HW-P2, (3S)-3-(2-(5-(3-(dimethylamino)propyl)-2-oxo-4-(trifluoromethyl)pyridin-1(2H)-yl)-4-methylpentanamido)-3-(2,4,4′-trifluoro-2′,6′-dimethyl-5-(trifluoromethyl)-[1,1′-biphenyl]-3-yl)propanoic Acid]
≤ 10 | Cc1cc(C)c(-c2cc(C(F)(F)F)c(F)c([C@H](CC(=O)O)NC(=O)[C@H](CC(C)C)n3cc(CCCN(C)C)c(C(F)(F)F)cc3=O)c2F)c(C)c1 [HZ-P2, (3S)-3-(2,4-difluoro-2′,4′,6′-trimethyl-5-(trifluoromethyl)biphenyl-3-yl)-3-(2-(5-(3-(dimethylamino)propyl)-2-oxo-4-(trifluoromethyl)pyridin-1(2H)-yl)-4-methylpentanamido)propanoic Acid]
≤ 10 | Cc1cc(C)c(-c2cc(C3CC3)c(F)c([C@H](CC(=O)O)NC(=O)[C@H](CC(C)C)n3cc(CCN4CCC4)c(C(F)(F)F)cc3=O)c2F)c(C)c1 [HM-P2, (3S)-3-(2-(5-(2-(azetidin-1-yl)ethyl)-2-oxo-4-(trifluoromethyl)pyridin-1(2H)-yl)-4-methylpentanamido)-3-(5-cyclopropyl-2,4-difluoro-2′,4′,6′-trimethylbiphenyl-3-yl)propanoic Acid]
